Reference: patent US8987249B2, “Substituted 2-Aza-bicyclo[2.2.1]heptane-3-carboxylic acid (benzyl-cyano-methyl)-amides inhibitors of Cathepsin C” (Boehringer Ingelheim International GmbH, priority 2013, dated 2015)

How the values were obtained:
[1] = target: recombinant human DPPI (Cathepsin C) (Homo sapiens (Human), UniProt P53634); experiment: Inhibition of human DPPI (Cathepsin C); format: biochemical; settings: substrate Gly-Arg-AMC
Experimental: Inhibition of Human DPPI (Cathepsin C)
Bovine serum albumin (BSA; Prod. No. A3059) and Dithiothreitol (DTT; Prod. No D0632) were from Sigma. […] The DPP1 inhibitor Gly-Phe-DMK was purchased from MP Biomedicals (Prod.-No. 03DK00625). The recombinant human DPPI was purchased from Prozymex. All other materials were of highest grade commercially available.
The following buffers were used: MES buffer: 25 mM MES, 50 mM NaCl, 5 mM DTT, adjusted to pH 6.0, containing 0.1% BSA; TAGZyme Buffer: 20 mM NaH2PO4, 150 mM NaCl adjusted to pH 6.0 with HCl
Then, 5 μL of substrate in MES buffer (final concentration 50 μM) were added. The microtiter plates were then incubated at room temperature for 30 min. Then, the reaction was stopped by adding 10 μL of Gly-Phe-DMK in MES-buffer (final concentration 1 μM).
The analysis of the data was performed by calculating the percentage of fluorescence in the presence of test compound in comparison to the fluorescence of the vehicle control after subtracting the background fluorescence using the following formula: (RFU(sample)−RFU(background))*100/(RFU(control)−RFU(background))
Data from these calculations were used to generate IC50 values for inhibition of DPPI, respectively.

[2] = target: recombinant human Cathepsin K (Homo sapiens (Human), UniProt P43235); experiment: Inhibition of human Cathepsin K; format: biochemical; settings: substrate Z-Gly-Pro-Arg-AMC
recombinant human Cathepsin K, sequence (P43235 115-329): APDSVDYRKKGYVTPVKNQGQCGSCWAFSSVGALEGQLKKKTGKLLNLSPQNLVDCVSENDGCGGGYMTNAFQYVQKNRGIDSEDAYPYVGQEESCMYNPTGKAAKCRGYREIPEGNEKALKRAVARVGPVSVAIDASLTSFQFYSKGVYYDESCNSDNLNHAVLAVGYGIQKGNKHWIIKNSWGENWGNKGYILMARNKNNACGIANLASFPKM
Text: Inhibition of Human Cathepsin K
Materials: Microtiterplates (Optiplate-384 F were purchased from PerkinElmer (Prod. No. 6007270). The substrate Z-Gly-Pro-Arg-AMC was from Biomol (Prod.-No. P-142). L-Cysteine (Prod. No. 168149) was from Sigma. Sodium acetate was from Merck (Prod.-No. 6268.0250), EDTA was from Fluka (Prod.-No. 03680). The inhibitor E-64 was purchased from Sigma (Prod.-No. E3132). The recombinant human Cathepsin K proenzyme was purchased from Biomol (Prod. No. SE-367). All other materials were of highest grade commercially available.
The following buffers were used: Activation buffer: 32.5 mM sodium acetate, adjusted to pH 3.5 with HCl; Assay buffer: 150 mM sodium acetate, 4 mM EDTA, 20 mM L-Cysteine, adjusted to pH 5.5 with HCl,
To activate the proenzyme, 5 μl procathepsin K were mixed with 1 ul activation buffer, and incubated at room temperature for 30 min.
5 μL test compound (final concentration 0.1 nM to 100 μM) in aqua bidest (containing 4% DMSO, final DMSO concentration 1%) were mixed with 10 uL of Cathepsin K in assay buffer (final concentration 2 ng/μL) and incubated for 10 min. […] The plates were then incubated at room temperature for 60 min. Then, the reaction was stopped by adding 10 μL of E64 in assay buffer (final concentration 1 μM). The fluorescence in the wells was determined using a Molecular Devices SpectraMax M5 Fluorescence Reader (Ex 360 nm, Em 460 nm).
Each assay microtiter plate contains wells with vehicle controls (1% DMSO in bidest) as reference for non-inhibited enzyme activity (100% Ctl; high values) and wells with inhibitor (E64 in bidest+1% DMSO, final concentration […]) as controls for background fluorescence (0% Ctl; low values). The analysis of the data was performed by calculating the percentage of fluorescence in the presence of test compound in comparison to the fluorescence of the vehicle control after subtracting the background fluorescence: (RFU(sample)−RFU(background))*100/(RFU(control)−RFU(background))
Data from these calculations were used to generate IC50 values for inhibition of Cathepsin K, respectively.

recombinant human DPPI (Cathepsin C), sequence (P53634 231-394): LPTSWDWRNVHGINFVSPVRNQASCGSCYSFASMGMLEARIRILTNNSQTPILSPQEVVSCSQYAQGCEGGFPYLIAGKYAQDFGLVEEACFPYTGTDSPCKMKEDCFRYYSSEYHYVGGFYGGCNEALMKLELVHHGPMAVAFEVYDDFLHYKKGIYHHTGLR
recombinant human DPPI (Cathepsin C), sequence (P53634 395-463): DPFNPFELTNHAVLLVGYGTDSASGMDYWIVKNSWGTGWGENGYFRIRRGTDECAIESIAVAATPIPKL
recombinant human DPPI (Cathepsin C), sequence (P53634 25-134): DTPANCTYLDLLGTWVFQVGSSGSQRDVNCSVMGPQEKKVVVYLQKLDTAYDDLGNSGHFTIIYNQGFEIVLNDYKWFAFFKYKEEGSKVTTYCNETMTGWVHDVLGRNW

SMILES	IC50 [1] [nM]	IC50 [2] [nM]
COc1ccccc1-c1cn(-c2ccc(C[C@@H](C#N)NC(=O)[C@H]3N[C@@H]4CC[C@H]3C4)c(F)c2)nn1 [Example 119]	51.2	4500
CCc1ncc(-c2ccc(C[C@@H](C#N)NC(=O)[C@H]3N[C@@H]4CC[C@H]3C4)c(F)c2)s1 [Example 46]	6.9	4000
CC(O)Cc1cn(-c2ccc(C[C@@H](C#N)NC(=O)[C@H]3N[C@@H]4CC[C@H]3C4)c(F)c2)nn1 (stereo partly drawn) [Example 101]	23.9	6500
CC(C)Cn1cc(-c2ccc(C[C@@H](C#N)NC(=O)[C@H]3N[C@@H]4CC[C@H]3C4)c(F)c2)cn1 [Example 64]	9.3	4200
Cc1cc(-c2ccc(C[C@@H](C#N)NC(=O)[C@H]3N[C@@H]4CC[C@H]3C4)c(F)c2)n(C)n1 [Example 63]		6200
N#CC(Cc1ccc2c(c1)[nH]c1ccccc12)NC(=O)[C@H]1N[C@@H]2CC[C@H]1C2 (stereo partly drawn) [Example 203]	23.3	8400
CC(C)n1cc(-c2ccc(CC(C#N)NC(=O)[C@H]3N[C@@H]4CC[C@H]3C4)c(F)c2)cn1 (stereo partly drawn) [Example 68]		7300
CC(=O)c1ccc(-c2ccc(CC(C#N)NC(=O)[C@H]3N[C@@H]4CC[C@H]3C4)c(F)c2)s1 (stereo partly drawn) [Example 72]	10.8	7300
N#C[C@H](Cc1ccc(-c2cn[nH]c2)cc1F)NC(=O)[C@H]1N[C@@H]2CC[C@H]1C2 [Example 69]	9.9	2400
N#CC(Cc1ccc(-c2ccoc2)cc1F)NC(=O)[C@H]1N[C@@H]2CC[C@H]1C2 (stereo partly drawn) [Example 103]	24.9	5900
CS(=O)(=O)Nc1ccc(-c2ccc(C[C@@H](C#N)NC(=O)[C@H]3N[C@H]4C[C@@H]3[C@@H]3C[C@@H]34)c(F)c2)cc1 [Example 140]	21.5	8400
Cc1n[nH]cc1-c1ccc(CC(C#N)NC(=O)[C@H]2N[C@@H]3CC[C@H]2C3)c(F)c1 (stereo partly drawn) [Example 104]	24.9	10300
Cc1c(-c2ccc(C[C@@H](C#N)NC(=O)[C@H]3N[C@@H]4CC[C@H]3C4)c(F)c2)cnn1C [Example 39]		7800
Cc1occc1-c1ccc(CC(C#N)NC(=O)[C@H]2N[C@@H]3CC[C@H]2C3)c(F)c1 (stereo partly drawn) [Example 92]	17.7	8200
N#CC(Cc1ccc(-c2ccc3c(c2)CC(=O)N3)cc1F)NC(=O)[C@H]1N[C@@H]2CC[C@H]1C2 (stereo partly drawn) [Example 79]	12	3500
CCn1cc(-c2ccc(C[C@@H](C#N)NC(=O)[C@H]3N[C@H]4C[C@@H]3[C@@H]3C[C@@H]34)c(F)c2)cn1 [Example 138]	14.5	6400
Cc1c(-c2ccc(C[C@@H](C#N)NC(=O)[C@H]3N[C@@H]4CC[C@H]3C4)c(F)c2)cnn1C [Example 65]		11700
COc1cccc(-c2cn(-c3ccc(C[C@@H](C#N)NC(=O)[C@H]4N[C@@H]5CC[C@H]4C5)c(F)c3)nn2)c1 [Example 94]		4900
COCCN1CCC(c2ccc(C[C@@H](C#N)NC(=O)[C@H]3N[C@@H]4CC[C@H]3C4)c(F)c2)C1 (stereo partly drawn) [Example 350]	38.6	
N#CC(Cc1ccc2c(c1)CCc1ccccc1-2)NC(=O)[C@H]1N[C@@H]2CC[C@H]1C2 (stereo partly drawn) [Example 209]	45.8	
N#Cc1ccc2c(c1)[nH]c(=O)c1cc(CC(C#N)NC(=O)[C@H]3N[C@@H]4CC[C@H]3C4)ccc12 (stereo partly drawn) [Example 309]	9.1	
N#C[C@H](Cc1ccc2ccccc2c1)NC(=O)[C@H]1N[C@@H]2CC[C@H]1C2 [Example 220]	253	
N#C[C@H](Cc1ccc(N2CCC3COCC3C2)cc1F)NC(=O)[C@H]1N[C@@H]2CC[C@H]1C2 (stereo partly drawn) [Example 352]	17.3	
CN1CCN(c2ccc(F)c(C[C@@H](C#N)NC(=O)[C@H]3N[C@@H]4CC[C@H]3C4)c2)CC1 [Example 318]	212	
N#C[C@H](Cc1ccc2c(c1F)CCC(N1CCOCC1)C2)NC(=O)[C@H]1N[C@@H]2CC[C@H]1C2 (stereo partly drawn) [Example 351]	82.8	
CN1CCO[C@@H]2CN(c3ccc(C[C@@H](C#N)NC(=O)[C@H]4N[C@@H]5CC[C@H]4C5)c(F)c3)C[C@@H]21 [Example 355]	22.4	
Cn1c(=O)oc2ccc(-c3ccc(C[C@@H](C#N)NC(=O)[C@H]4N[C@H]5C[C@@H]4[C@@H]4C[C@@H]45)c(F)c3)cc21 [Example 129]	82.7	
N#CC(Cc1ccc2[nH]ncc2c1)NC(=O)[C@H]1N[C@@H]2CC[C@H]1C2 (stereo partly drawn) [Example 8, (1S,2S,4R)—N-[1-cyano-2-(1H-indazol-5-yl)ethyl]-3-azabicyclo[2.2.1]heptane-2-carboxamide]	679	
Cc1cn(C)c(-c2ccc(C[C@@H](C#N)NC(=O)[C@H]3N[C@@H]4CC[C@H]3C4)c(F)c2)n1 [Example 208]	29.8	

Second part, the compound after the results:

IC50 [1] [nM]	IC50 [2] [nM]	SMILES
7.5	4900	CNS(=O)(=O)c1ccc(-c2ccc(CC(C#N)NC(=O)[C@H]3N[C@@H]4CC[C@H]3C4)c(F)c2)cc1 (stereo partly drawn) [Example 51]
8.3	4000	N#CC(Cc1ccc(-c2ccc(S(N)(=O)=O)cc2)cc1F)NC(=O)[C@H]1N[C@@H]2CC[C@H]1C2 (stereo partly drawn) [Example 56]
3.8	2900	N#C[C@H](Cc1ccc(-c2csc(C(=O)N3CCN4CCOCC4C3)c2)cc1F)NC(=O)[C@H]1N[C@@H]2CC[C@H]1C2 (stereo partly drawn) [Example 234]
1.6	2000	COCCN1CCN(C(=O)c2cc(-c3ccc(C[C@@H](C#N)NC(=O)[C@H]4N[C@@H]5CC[C@H]4C5)c(F)c3)cs2)CC1 [Example 228]
1.9	8000	CC(=O)n1nc(-c2ccc(CC(C#N)NC(=O)[C@H]3N[C@@H]4CC[C@H]3C4)c(F)c2)cc1C (stereo partly drawn) [Example 7, (1S,2S,4R)—N-[2-[4-(1-acetyl-5-methyl-pyrazol-3-yl)-2-fluoro-phenyl]-1-cyano-ethyl]-3-azabicyclo[2.2.1]heptane-2-carboxamide]
2.6	6100	COC(=O)c1cc(-c2ccc(C[C@@H](C#N)NC(=O)[C@H]3N[C@@H]4CC[C@H]3C4)c(F)c2)cs1 [Example 17]
1.9	1100	Cn1c(=O)c2cc(C[C@@H](C#N)NC(=O)[C@H]3N[C@@H]4CC[C@H]3C4)c(F)cc2c2ccccc21 [Example 326]
3.1	2900	CC(=O)n1cc(-c2ccc(C[C@@H](C#N)NC(=O)[C@H]3N[C@@H]4CC[C@H]3C4)c(F)c2)cn1 [Example 20]
4	3200	Cc1ccc(-c2ccc(C[C@@H](C#N)NC(=O)[C@H]3N[C@@H]4CC[C@H]3C4)c(F)c2)o1 [Example 27]
7.2	3300	CC(C)CC(=O)n1cc(-c2ccc(C[C@@H](C#N)NC(=O)[C@H]3N[C@@H]4CC[C@H]3C4)c(F)c2)cn1 [Example 48]
1.7		Cc1nn(C)cc1-c1ccc(C[C@@H](C#N)NC(=O)[C@H]2N[C@@H]3CC[C@H]2C3)c(F)c1 [Example 160]
6.8		N#C[C@H](Cc1ccc(N2CCC3CN(C4CCOC4)CC32)cc1F)NC(=O)[C@H]1N[C@@H]2CC[C@H]1C2 (stereo partly drawn) [Example 354]
6.3		COC(=O)c1ccc(-c2ccc(C[C@@H](C#N)NC(=O)[C@H]3N[C@@H]4CC[C@H]3C4)c(F)c2)o1 [Example 175]
5.6		N#C[C@H](Cc1ccc(-c2cnc3cccnn23)cc1F)NC(=O)[C@H]1N[C@@H]2CC[C@H]1C2 [Example 174]
